Reference: patent publication US10287295B2, “TGF-β inhibitors” (Rigel Pharmaceuticals, Inc., priority 2015, dated 2019)

Tests used:
[1] = tested on: GDF8 signaling (GDF pSMAD, MPC11); assay: AlphaScreen SureFire SMAD3 (p-Ser423/425) assay, inhibition of GDF8 signaling; type: cell-based; details: Mus musculus, MPC-11, inhibition of GDF8 signaling, p-SMAD3 readout
[2] = tested on: TGF-β signaling (TGF-β pSMAD, MPC-11); assay: AlphaScreen SureFire SMAD3 (p-Ser423/425) assay, inhibition of TGF-β signaling; type: cell-based; details: Mus musculus, MPC-11, inhibition of TGF-β signaling, p-SMAD3 readout

Row | IC50 [1] [µM] | IC50 [2] [µM] | Structure (SMILES)
1 | 0.73 | 2.84 | Cc1nc(-c2cc(F)cc(F)c2)c(-c2ccc3[nH]ncc3c2)[nH]1 [Compound 148, 5-(4-(3,5-Difluorophenyl)-2-methyl-1H-imidazol-5-yl)-1H-indazole]
2 | 0.05 | 0.12 | CCc1nc(-c2cccc(Cl)c2)c(-c2ccc3ncnn3c2)[nH]1 [Compound 125, 6-(4-(3-Chlorophenyl)-2-ethyl-1H-imidazol-5-yl)-[1,2,4]triazolo[1,5-a]pyridine]
3 | 0.23 | 1.39 | CCc1nc(-c2cccc(C)c2)c(-c2ccc3nccnc3c2)[nH]1 [Compound 118, 6-(2-Ethyl-4-(m-tolyl)-1H-imidazol-5-yl)quinoxaline]
4 | 0.55 | 1.39 | CCc1nc(-c2ccc(F)c(F)c2)c(-c2ccc3ncnn3c2)[nH]1 [Compound 132, 6-(4-(3,4-Difluorophenyl)-2-ethyl-1H-imidazol-5-yl)-[1,2,4]triazolo[1,5-a]pyridine]
5 | 0.58 | 4.53 | CCc1nc(-c2ccc(F)cc2)c(-c2ccc3ncsc3c2)[nH]1 [Compound 122, 6-(2-Ethyl-4-(4-fluorophenyl)-1H-imidazol-5-yl)benzo[d]thiazole]
6 | 0.62 | 2.22 | CCc1nc(-c2cc(F)cc(Cl)c2)c(-c2ccc3ncsc3c2)[nH]1 [Compound 140, 6-(4-(3-Chloro-5-fluorophenyl)-2-ethyl-1H-imidazol-5-yl)benzo[d]thiazole]
7 | 0.08 | 0.4 | CCc1nc(-c2ccc(F)c(C)c2)c(-c2ccc3ncnn3c2)[nH]1 [Compound 108, 6-(2-Ethyl-4-(4-fluoro-3-methylphenyl)-1H-imidazol-5-yl)-[1,2,4]triazolo[1,5-a]pyridine]
8 | 0.1 | 0.54 | Cc1nc(-c2cc(F)c(F)cc2F)c(-c2ccc3[nH]ncc3c2)[nH]1 [Compound 97, 5-(2-Methyl-4-(2,4,5-trifluorophenyl)-1H-imidazol-5-yl)-1H-indazole]
9 | 0.16 | 0.75 | CCc1nc(-c2cccc(C)c2)c(-c2ccc3ncnn3c2)[nH]1 [Compound 115, 6-(2-Ethyl-4-(m-tolyl)-1H-imidazol-5-yl)-[1,2,4]triazolo[1,5-a]pyridine]
10 | 0.28 | 1.52 | CCc1nc(-c2cccc(C)c2)c(-c2ccc3ncsc3c2)[nH]1 [Compound 116, 6-(2-Ethyl-4-(m-tolyl)-1H-imidazol-5-yl)benzo[d]thiazole]
11 | 0.39 | 2.23 | Cc1nc(-c2cc(F)c(F)c(F)c2)c(-c2ccc3cn[nH]c3c2)[nH]1 [Compound 91, 6-(2-Methyl-4-(3,4,5-trifluorophenyl)-1H-imidazol-5-yl)-1H-indazole]
12 | 0.0663 | 0.218 | Nc1nc(-c2cccc(Cl)c2)c(-c2ccc3nccn3c2)s1 [Compound 164, 4-(3-chlorophenyl)-5-(imidazo[1,2-a]pyridin-6-yl)thiazol-2-amine]
13 | 0.73 | 3.26 | CCc1nc(-c2cccc(F)c2)c(-c2ccc3nccn3c2)[nH]1 [Compound 138, 6-(2-Ethyl-4-(3-fluorophenyl)-1H-imidazol-5-yl)imidazo[1,2-a]pyridine]
14 | 0.3 | 2.34 | Cc1nc(-c2cc(F)c(F)c(F)c2)c(-c2ccc3ncsc3c2)[nH]1 [Compound 93, 6-(2-Methyl-4-(3,4,5-trifluorophenyl)-1H-imidazol-5-yl)benzo[d]thiazole]
15 | 0.54 | 1.34 | CCc1nc(-c2cccc(Cl)c2)c(-c2ccc3[nH]ncc3c2)[nH]1 [Compound 124, 5-(4-(3-Chlorophenyl)-2-ethyl-1H-imidazol-5-yl)-1H-indazole]
16 | 0.0468 | 0.427 | Cc1cccc(-c2ncsc2-c2ccc3ncsc3c2)c1 [Compound 161, 6-(4-(m-tolyl)thiazol-5-yl)benzo[d]thiazole]
17 | 0.44 | 2.43 | Cc1nc(-c2cc(F)c(F)c(F)c2)c(-c2ccc3nccnc3c2)[nH]1 [Compound 96, 6-(2-Methyl-4-(3,4,5-trifluorophenyl)-1H-imidazol-5-yl)quinoxaline]
18 | 0.72 | 3.22 | CCc1nc(-c2cc(F)cc(F)c2)c(-c2ccc3ncsc3c2)[nH]1 [Compound 149, 6-(4-(3,5-Difluorophenyl)-2-ethyl-1H-imidazol-5-yl)benzo[d]thiazole]
19 | 0.121 | 0.909 | Nc1nc(-c2cccc(Cl)c2)c(-c2ccc3cn[nH]c3c2)s1 [Compound 172, 4-(3-chlorophenyl)-5-(1H-indazol-6-yl)thiazol-2-amine]
20 | 0.425 | 2.36 | Nc1nc(-c2cccc(C(F)(F)F)c2)c(-c2ccc3cn[nH]c3c2)s1 [Compound 185, 5-(1H-indazol-6-yl)-4-(3-(trifluoromethyl)phenyl)thiazol-2-amine]

The remaining lines, values behind:

Row | Structure (SMILES) | IC50 [1] [µM] | IC50 [2] [µM]
21 | Cc1nc(-c2ccc(F)c(C)c2)c(-c2ccc3cn[nH]c3c2)[nH]1 [Compound 72, 6-(4-(4-Fluoro-3-methylphenyl)-2-methyl-1H-imidazol-5-yl)-1H-indazole] | 0.1 | 0.97
22 | Cc1nc(-c2cc(F)c(F)c(F)c2)c(-c2ccc3[nH]ncc3c2)[nH]1 [Compound 90, 5-(2-Methyl-4-(3,4,5-trifluorophenyl)-1H-imidazol-5-yl)-1H-indazole] | 0.63 | 3.56
23 | Cc1cccc(-c2nc(C)n(C)c2-c2ccc3ncsc3c2)c1 [Compound 59, 6-(1,2-Dimethyl-4-(m-tolyl)-1H-imidazol-5-yl)benzo[d]thiazole] | 0.69 | 6.75
24 | Cc1nc(-c2ccc(F)cc2)c(-c2ccc3ncn(C)c3c2)[nH]1 [Compound 79, 6-(4-(4-Fluorophenyl)-2-methyl-1H-imidazol-5-yl)-1-methyl-1H-benzo[d]imidazole] | 0.11 | 0.85
25 | Cc1nc(-c2ccc(F)c(F)c2)c(-c2ccc3ncsc3c2)[nH]1 [Compound 86, 6-(4-(3,4-Difluorophenyl)-2-methyl-1H-imidazol-5-yl)benzo[d]thiazole] | 0.22 | 1.28
26 | Cn1cnc(-c2ccc(F)c(F)c2)c1-c1ccc2[nH]ncc2c1 [Compound 64, 5-(4-(3,4-Difluorophenyl)-1-methyl-1H-imidazol-5-yl)-1H-indazole] | 0.09 | 0.27
27 | Cc1cccc(-c2nc[nH]c2-c2ccc3ncsc3c2)c1 [Compound 18, 6-(4-(m-Tolyl)-1H-imidazol-5-yl)benzo[d]thiazole] | 0.04 | 0.15
28 | Cc1cccc(-c2ncn(C)c2-c2ccc3ncsc3c2)c1 [Compound 44, 6-(1-Methyl-4-(m-tolyl)-1H-imidazol-5-yl)benzo[d]thiazole] | 0.18 | 0.72
29 | Cn1cnc(-c2cccc(Cl)c2)c1-c1ccc2[nH]ncc2c1 [Compound 60, 5-(4-(3-Chlorophenyl)-1-methyl-1H-imidazol-5-yl)-1H-indazole] | 0.02 | 0.06
30 | Cc1nc(-c2ccc(F)cc2)c(-c2ccc3nccnc3c2)[nH]1 [Compound 82, 6-(4-(4-Fluorophenyl)-2-methyl-1H-imidazol-5-yl)quinoxaline] | 0.48 | 3.27
31 | c1ccc(-c2nc[nH]c2-c2ccc3[nH]ncc3c2)cc1 [Compound 1, 5-(4-Phenyl-1H-imidazol-5-yl)-1H-indazole] | 0.07 | 0.23
32 | Cn1cnc2ccc(-c3[nH]cnc3-c3ccc(F)cc3)cc21 [Compound 12, 6-(4-(4-Fluorophenyl)-1H-imidazol-5-yl)-1-methyl-1H-benzo[d]imidazole] | 0.13 | 0.27
33 | Fc1ccc(-c2nc[nH]c2-c2ccc3ncccc3c2)cc1 [Compound 38, 6-(4-(4-Fluorophenyl)-1H-imidazol-5-yl)quinoline] | 0.93 | 2.55
34 | Cc1cccc(-c2nc(C)n(C)c2-c2ccc3cn[nH]c3c2)c1 [Compound 57, 6-(1,2-Dimethyl-4-(m-tolyl)-1H-imidazol-5-yl)-1H-indazole] | 0.71 | 9.21
35 | Cc1cc(-c2ncn(C)c2-c2ccc3ncccc3c2)ccc1F [Compound 37, 6-(4-(4-Fluoro-3-methylphenyl)-1-methyl-1H-imidazol-5-yl)quinoline] | 0.26 | 0.92
36 | Cc1cc(-c2nc[nH]c2-c2ccc3cn[nH]c3c2)ccc1F [Compound 4, 6-(4-(4-Fluoro-3-methylphenyl)-1H-imidazol-5-yl)-1H-indazole] | 0.01 | 0.02
37 | Fc1ccc(-c2nc[nH]c2-c2ccc3ncsc3c2)cc1 [Compound 13, 6-(4-(4-Fluorophenyl)-1H-imidazol-5-yl)benzo[d]thiazole] | 0.12 | 0.38
38 | c1ccc(-c2nc[nH]c2-c2ccc3cn[nH]c3c2)cc1 [Compound 2, 6-(4-Phenyl-1H-imidazol-5-yl)-1H-indazole] | 0.06 | 0.2
39 | Cn1cnc2ccc(-c3[nH]cnc3-c3cccc(Cl)c3)cc21 [Compound 24, 6-(4-(3-Chlorophenyl)-1H-imidazol-5-yl)-1-methyl-1H-benzo[d]imidazole] | 0.01 | 0.01
40 | Cc1cccc(-c2ncn(C)c2-c2ccc3nccnc3c2)c1 [Compound 47, 6-(1-Methyl-4-(m-tolyl)-1H-imidazol-5-yl)quinoxaline] | 0.18 | 0.66
41 | Cc1cccc(-c2ncn(C)c2-c2ccc3cn[nH]c3c2)c1 [Compound 42, 6-(1-Methyl-4-(m-tolyl)-1H-imidazol-5-yl)-1H-indazole] | 0.03 | 0.15
42 | Cc1nc(-c2ccc(F)cc2)c(-c2ccc3cn[nH]c3c2)[nH]1 [Compound 78, 6-(4-(4-Fluorophenyl)-2-methyl-1H-imidazol-5-yl)-1H-indazole] | 0.29 | 2.47
43 | Fc1ccc(-c2nc[nH]c2-c2ccc3nccn3c2)cc1F [Compound 35, 6-(4-(3,4-Difluorophenyl)-1H-imidazol-5-yl)imidazo[1,2-a]pyridine] | 0.3 | 0.64
